# Results taken from US20050032149A1, “Enzyme catalyzed isotope labeling” (priority 2003, published 2005).
# How the values were obtained:
# trypsin [1] = biological target: T1, trypsin (Sus scrofa, UniProt P00761); assay: Control experiment: non-Arg/Lys-terminated peptides incubated with trypsin in H2 18O; type: biochemical; conditions: mixture VEPIPY 710 μM and YGGFM 500 μM, 200 mM Tris, 2 μg trypsin, H2 18O pH 8.5, room temperature overnight
# T1 construct: purchased Promega (Madison, Wis.)
# Experimental: For the process of ^18O2-coding of Arg- and Lys-terminated peptides through two exchange reactions, a sequential mechanism (FIG. 7) is supported by the kinetics shown in FIG. 5. Trypsin-catalyzed exchange reactions are substrate-specific; only peptides with Arg or Lys in the P1 position can undergo exchanges catalyzed by trypsin. As a control experiment, a mixture of VEPIPY (710 μM) and YGGFM (500 μM) was incubated with 200 mM Tris and 2 μg trypsin in H2^18O (pH 8.5) at room-temperature overnight. […] Thus, there was not significant catalysis from either the enzyme or the buffer.
# trypsin [2] = biological target: T1, trypsin; assay: Kinetics of 16O-to-18O exchange of YGGFMK and YGGFMR catalyzed by trypsin (MALDI-FT-ICR-MS); type: biochemical
# Experimental: Kinetics Measurement of ^16O-to-^18O Exchange of YGGFMK and YGGFMR Catalyzed by Trypsin. […] Aliquots of the reaction mixture were taken at different time intervals for the first 10% of reactant conversion. The reaction temperature was maintained at 26±1° C., and the ionic strength was controlled by NaCl (45 mM). The reaction volume was typically 20 μL. The change of the peak intensity for the peptide was monitored by MALDI-FT-ICR-MS. Substrate concentrations used in the kinetics studies ranged between 0.2 KM and 5 KM, and measurements were duplicated for each substrate concentration. At high concentrations (>10 mM) of YGGFMK, acetonitrile (10% v/v) was used to increase the substrate solubility in reaction buffer. A full course of ^16O-to-^18O exchange reaction of YGGFMR was also recorded using similar conditions.
# (§1) MALDI-FT-ICR Mass Spectrometric Analysis. Reaction mixtures in H2^18O were diluted with 70:30 acetonitrile:water (0.1% TFA) to obtain a final peptide concentration of about 10 pmol/μl. A 0.6 μL aliquot of this solution was applied on the MALDI stainless steel probe followed by 0.6 μL of a solution of 2,5-dihydroxybezoic acid (500 mM) in 70:30 acetonitrile:water (0.1% TFA). The mixture was gently stirred during the crystallization. An FT-ICR instrument equipped with a 4.7 T actively shielded magnet (lonspec Co., Irvine, Calif.) was used for this study. An external MALDI ion source was differentially pumped. A pulsed (5 ns width) Nd:YAG laser (Minilite, Contimuum, Inc., Santa Clara, Calif.) was operated at 355 nm (triple of its fundamental frequency). The laser energy was attenuated by adjusting the angle between two Glan-laser prism polarizers (Karl-Lambrecht Co., Chicago, Ill.). Ions were injected into the ICR cylindrical cell by an RF-only quadrupole ion guide. A 4 ms nitrogen pulse was used to trap the ions and remove their excess of kinetic energy. After a 4 s delay, the ions were excited by a 35 Vb-p RF sweep during 4 ms (29-180 kHz). The image signal was amplified and digitized at an acquisition rate of 2 MHz (512 k data point) resulting in the recording of a 262.1 ms time domain, which gave a typical mass resolution of 10 000. The average of single time domain transients (more than 10 times) was Fourier transformed into the corresponding frequency domain (two zero fills and Blackman apodization).
# MALDI-FT-ICR Mass Spectrometric Analysis of ^16O-to-^18O Exchange Reactions. […] The residual ^16O content in H2^18O (less than 5%) was not considered in formulation of the equation.
# Kinetic Constants for ^16O-to-^18O Exchange of YGGFMK and YGGFMR Catalyzed by Trypsin. […] The time course for the first 10% of the reaction was limited to less than 30 min by adjusting the concentration of trypsin.
# From the plots, values for kcat's, KM's, and kcat/KM's were calculated.
# α-chymotrypsin = biological target: T2, α-chymotrypsin (Bos taurus, UniProt P00766); assay: Chymotryptic digestion of apomyoglobin in H2 18O, 18O2-coding of peptides; type: biochemical, Bovine; conditions: apomyoglobin 51 nmol, 200 μg α-chymotrypsin, H2 18O pH 8.0, room temperature
# T2 construct: purchased Sigma (St. Louis, Mo.); host or cells: bovine pancreas
# Experimental: Chymotryptic Digestion of Apomyoglobin in H2^18O. An apomyglobin (51 nmol) suspension in H2^18O (24 mM Tris/HCl, pH 8.0) was incubated with 200 μg of α-chymotrypsin (bovine pancreas, Sigma) at room temperature. Aliquots were taken at different time intervals for MALDI-FT-ICR analysis.
# as §1, with “[…] In mass spectra, heights for” for “The average of single time domain transients (more than 10 times) was Fourier transformed into”, “monoisotope peaks for peptides, the peaks with masses 2 Da higher,” for “corresponding frequency domain (two zero fills”, “the peaks with masses 4 Da higher were measured as peak intensities I0, I2, and I4, respectively.” for “Blackman apodization).”
# Exchange Reactions Catalyzed by Chymotrypsin. Chymotryptic proteolysis of apomyoglobin in H2^18O was analyzed by MALDI-FT-ICR. […]
# [3] = trypsin-catalyzed 16O-to-18O exchange, double reciprocal plot, pH 8.0, 26±1° C.
# T1 sequence (P00761 9-231): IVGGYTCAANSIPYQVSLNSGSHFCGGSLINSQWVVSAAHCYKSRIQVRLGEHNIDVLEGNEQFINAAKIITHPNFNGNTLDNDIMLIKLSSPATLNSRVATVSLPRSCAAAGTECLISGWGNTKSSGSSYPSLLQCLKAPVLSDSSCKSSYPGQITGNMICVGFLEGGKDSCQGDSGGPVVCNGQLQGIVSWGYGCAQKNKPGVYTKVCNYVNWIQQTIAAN
substance,measurement,setting,value
VEPIPY,exchange of oxygens,trypsin [1],No detectable exchange of oxygens
YGGFM,exchange of oxygens,trypsin [1],No detectable exchange of oxygens
YGGFMR,Km,trypsin [2]; [3],1300 ± 300 µM
same,kcat,trypsin [2]; [3],3500 ± 500 min⁻¹
same,Km,trypsin [2]; trypsin-catalyzed exchange,1300 µM
same,kcat,trypsin [2]; trypsin-catalyzed exchange,3500+−500 per min
"RNDIMKY [CT10, Chymotryptic peptide of apomyoglobin]",time to complete 18O2-coding,α-chymotrypsin,1.5 h
"GADAQGAMTKALELF [CT9, Chymotryptic peptide of apomyoglobin]",time to complete 18O2-coding,α-chymotrypsin,20 h
"TGHPETLEKF [CT4, Chymotryptic peptide of apomyoglobin]",time to complete 18O2-coding,α-chymotrypsin,3.5 h
YGGFMK,Km,trypsin [2]; [3],4400 ± 700 µM
same,kcat,trypsin [2]; [3],2800 ± 300 min⁻¹
same,Km,trypsin [2]; trypsin-catalyzed exchange,4400 µM
same,kcat,trypsin [2]; trypsin-catalyzed exchange,2800+−300 per min
